In patent US11331299B2, “Medicinal use of serrulatane diterpenes” (The University of Sydney, priority 2016, dated 2022):
pIC50: −log10 of the molar value.

Key:
BAZ2B (h) bromodomain = molecular target: T1, BAZ2B (h) bromodomain (Homo sapiens, UniProt Q9UIF8); assay: Epigenetic binding assay, Bromodomain; details: read-out: % Inhibition of Control Specific Binding
T1 construct: Bromodomain
T1 sequence (Q9UIF8 2060-2164 limits assumed): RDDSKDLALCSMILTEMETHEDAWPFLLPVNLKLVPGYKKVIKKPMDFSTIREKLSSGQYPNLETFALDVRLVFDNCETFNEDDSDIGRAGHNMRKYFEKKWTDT

ATAD2A (h) bromodomain = molecular target: T2, ATAD2A (h) bromodomain (Homo sapiens, UniProt Q6PL18); assay: Epigenetic binding assay, Bromodomain; details: for inhibition at 10 µM: read-out: % Inhibition of Control Specific Binding
T2 construct: Bromodomain
T2 sequence (Q6PL18 980-1092 limits assumed): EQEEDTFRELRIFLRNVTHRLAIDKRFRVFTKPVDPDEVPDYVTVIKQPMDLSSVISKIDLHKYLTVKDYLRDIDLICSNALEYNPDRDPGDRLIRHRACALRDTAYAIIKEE

BRD3(2) (h) bromodomain = molecular target: T3, BRD3(2) (h) bromodomain (Homo sapiens, UniProt Q15059); assay: Epigenetic binding assay, Bromodomain; details: 10 μM; read-out: % Inhibition of Control Specific Binding
T3 construct: Bromodomain
T3 sequence (Q15059 306-415 limits assumed): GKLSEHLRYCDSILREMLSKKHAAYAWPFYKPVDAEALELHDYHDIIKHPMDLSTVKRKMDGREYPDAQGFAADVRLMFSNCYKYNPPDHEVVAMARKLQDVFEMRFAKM

H3K36 me2 = assay: Cell-based detection methyl modifications; details: read-out: % Inhibition of Control Values
JMJD2B (h) = molecular target: T4, JMJD2B (h) (Homo sapiens, UniProt O94953); assay: Epigenetic enzyme assay, Demethylases (KDMs); format: biochemical; details: for inhibition at 10 µM: read-out: % Inhibition of Control Values
T4 sequence (O94953 1-1096): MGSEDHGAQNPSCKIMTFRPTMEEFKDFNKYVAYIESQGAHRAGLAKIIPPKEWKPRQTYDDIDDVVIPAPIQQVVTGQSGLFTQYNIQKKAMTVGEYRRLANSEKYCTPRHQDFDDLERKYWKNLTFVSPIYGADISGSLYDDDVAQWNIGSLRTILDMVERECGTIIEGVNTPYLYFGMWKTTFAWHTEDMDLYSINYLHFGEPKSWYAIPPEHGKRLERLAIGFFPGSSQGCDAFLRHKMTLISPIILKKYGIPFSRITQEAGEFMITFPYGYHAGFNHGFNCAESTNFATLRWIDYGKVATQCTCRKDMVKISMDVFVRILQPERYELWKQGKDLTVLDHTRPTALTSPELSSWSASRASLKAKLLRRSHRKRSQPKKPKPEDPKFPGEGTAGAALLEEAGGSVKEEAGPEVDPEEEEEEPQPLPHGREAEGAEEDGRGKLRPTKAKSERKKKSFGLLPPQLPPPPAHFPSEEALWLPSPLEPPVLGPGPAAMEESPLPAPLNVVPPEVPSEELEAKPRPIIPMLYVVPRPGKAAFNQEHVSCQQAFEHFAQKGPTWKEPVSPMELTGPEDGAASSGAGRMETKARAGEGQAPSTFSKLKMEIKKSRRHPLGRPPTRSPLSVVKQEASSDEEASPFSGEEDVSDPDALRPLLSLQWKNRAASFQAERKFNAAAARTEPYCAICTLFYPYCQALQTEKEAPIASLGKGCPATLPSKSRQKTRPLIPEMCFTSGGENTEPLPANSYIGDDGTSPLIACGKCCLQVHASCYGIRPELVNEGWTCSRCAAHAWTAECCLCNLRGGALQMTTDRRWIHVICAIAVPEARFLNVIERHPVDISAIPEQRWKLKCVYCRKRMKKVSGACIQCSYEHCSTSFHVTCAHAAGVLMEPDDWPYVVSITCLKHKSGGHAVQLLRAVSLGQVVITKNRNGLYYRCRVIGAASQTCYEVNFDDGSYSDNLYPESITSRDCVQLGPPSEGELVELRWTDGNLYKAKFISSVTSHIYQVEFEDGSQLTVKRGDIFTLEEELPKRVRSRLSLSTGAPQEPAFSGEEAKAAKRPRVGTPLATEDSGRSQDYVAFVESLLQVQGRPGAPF

hSMYD2 = hSMYD2 (Homo sapiens, UniProt Q9NRG4); assay: Epigenetic enzyme assay, Methyltransferases (MTs); format: biochemical; details: for inhibition at 10 µM: read-out: % Inhibition of Control Values
hSMYD2, sequence (Q9NRG4 whole entry): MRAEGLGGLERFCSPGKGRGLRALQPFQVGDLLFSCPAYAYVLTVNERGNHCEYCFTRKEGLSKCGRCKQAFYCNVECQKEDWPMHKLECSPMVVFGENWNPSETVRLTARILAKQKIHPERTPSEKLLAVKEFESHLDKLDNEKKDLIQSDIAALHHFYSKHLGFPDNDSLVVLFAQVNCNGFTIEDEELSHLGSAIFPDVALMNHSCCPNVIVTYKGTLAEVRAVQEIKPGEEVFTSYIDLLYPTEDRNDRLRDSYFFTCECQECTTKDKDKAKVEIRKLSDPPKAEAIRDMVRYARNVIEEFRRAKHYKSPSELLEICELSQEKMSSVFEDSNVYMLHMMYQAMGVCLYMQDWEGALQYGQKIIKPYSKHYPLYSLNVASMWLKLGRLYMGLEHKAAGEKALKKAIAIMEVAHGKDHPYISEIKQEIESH

MLL3(h) complex = MLL3(h) complex (Homo sapiens, UniProt Q8NEZ4); assay: Epigenetic enzyme assay, Methyltransferases (MTs); format: biochemical; details: for inhibition at 10 µM: read-out: % Inhibition of Control Values
[1] = molecular target: PKBgamma/AKT3(h) (substrate histone H3 full length) (Homo sapiens, UniProt Q9Y243); assay: Epigenetic enzyme assay, Kinases; format: biochemical; details: read-out: % Inhibition of Control Values
PKBgamma/AKT3(h) (substrate histone H3 full length), sequence (Q9Y243 whole entry): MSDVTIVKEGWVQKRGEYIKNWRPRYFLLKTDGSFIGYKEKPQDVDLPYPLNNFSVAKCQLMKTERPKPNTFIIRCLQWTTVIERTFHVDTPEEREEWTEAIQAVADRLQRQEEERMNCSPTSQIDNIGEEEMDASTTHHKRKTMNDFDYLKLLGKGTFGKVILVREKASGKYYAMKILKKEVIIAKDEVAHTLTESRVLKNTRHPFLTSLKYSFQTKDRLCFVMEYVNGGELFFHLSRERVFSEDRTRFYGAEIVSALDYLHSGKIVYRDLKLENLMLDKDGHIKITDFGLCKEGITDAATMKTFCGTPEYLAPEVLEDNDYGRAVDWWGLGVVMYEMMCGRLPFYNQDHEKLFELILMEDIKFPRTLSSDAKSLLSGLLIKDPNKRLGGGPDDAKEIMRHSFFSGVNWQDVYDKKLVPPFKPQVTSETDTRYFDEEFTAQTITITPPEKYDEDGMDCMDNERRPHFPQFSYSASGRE

[2] = molecular target: Histamine N-methyltransferase (h) (Homo sapiens, UniProt P50135); assay: Epigenetic enzyme assay, Small molecule methyltransferases; format: biochemical; details: read-out: % Inhibition of Control Values
Histamine N-methyltransferase (h), sequence (P50135 whole entry): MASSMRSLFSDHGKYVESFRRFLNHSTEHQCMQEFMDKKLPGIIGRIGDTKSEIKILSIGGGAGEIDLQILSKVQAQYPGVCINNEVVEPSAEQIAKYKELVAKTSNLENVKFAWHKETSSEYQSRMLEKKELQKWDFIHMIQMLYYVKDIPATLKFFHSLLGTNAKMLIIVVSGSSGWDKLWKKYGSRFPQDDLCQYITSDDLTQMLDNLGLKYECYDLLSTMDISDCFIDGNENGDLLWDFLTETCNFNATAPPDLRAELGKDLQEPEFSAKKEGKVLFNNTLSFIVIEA

Chemokine CXCR2 (IL-8RB) = molecular target: T5, Chemokine CXCR2 (IL-8RB) (Homo sapiens, UniProt P25025); assay: Chemokine CXCR2 (IL-8RB) radio ligand binding; details: assay year 2015
T5 construct: expressed in transfected cells; host or cells: CHO-K1 cells
T5 sequence (P25025 1-360): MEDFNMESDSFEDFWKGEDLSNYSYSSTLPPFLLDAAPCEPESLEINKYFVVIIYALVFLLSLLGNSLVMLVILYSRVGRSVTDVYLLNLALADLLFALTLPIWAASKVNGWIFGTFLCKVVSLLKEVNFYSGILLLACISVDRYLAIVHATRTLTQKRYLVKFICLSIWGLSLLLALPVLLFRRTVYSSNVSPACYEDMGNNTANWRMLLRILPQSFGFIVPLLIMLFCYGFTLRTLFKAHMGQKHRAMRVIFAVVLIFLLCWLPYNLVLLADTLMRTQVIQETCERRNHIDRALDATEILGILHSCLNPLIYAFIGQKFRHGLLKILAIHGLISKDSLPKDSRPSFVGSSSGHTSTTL
Procedure: The in vitro pharmacological studies were conducted by Eurofins PanLab (Taiwan) using the parameters shown in Table 13 with respect to appropriate literature references.

CYP2B6 = molecular target: T6, CYP2B6 (Homo sapiens, UniProt P20813); assay: Cytochrome P450 Inhibition (CYP panel); details: human, probe bupropion
T6 sequence (P20813 1-491): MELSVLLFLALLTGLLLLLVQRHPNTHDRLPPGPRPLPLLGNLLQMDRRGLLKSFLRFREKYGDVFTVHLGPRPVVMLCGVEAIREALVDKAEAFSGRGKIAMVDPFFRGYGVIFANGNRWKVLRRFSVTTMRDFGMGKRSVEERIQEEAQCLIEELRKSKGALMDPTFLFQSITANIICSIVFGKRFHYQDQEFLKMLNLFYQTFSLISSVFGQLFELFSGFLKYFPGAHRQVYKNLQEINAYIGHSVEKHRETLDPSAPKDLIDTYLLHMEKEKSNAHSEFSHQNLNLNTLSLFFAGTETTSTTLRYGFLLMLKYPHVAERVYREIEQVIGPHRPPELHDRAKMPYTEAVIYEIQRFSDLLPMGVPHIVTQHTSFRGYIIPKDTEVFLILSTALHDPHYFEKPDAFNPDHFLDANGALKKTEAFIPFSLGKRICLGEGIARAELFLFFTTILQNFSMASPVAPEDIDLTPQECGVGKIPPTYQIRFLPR

Row | SMILES | inhibition at 10 µM (BAZ2B (h) bromodomain) [%] | % Inhibition of Control Specific Binding (ATAD2A (h) bromodomain; 10 μM) | inhibition at 10 µM (ATAD2A (h) bromodomain; 10 μM) [%] | pIC50 (ATAD2A (h) bromodomain; Table 9, inhibition/concentration-response curve, read-out: IC50) | inhibition at 10 µM (BRD3(2) (h) bromodomain) [%] | inhibition at 10 µM (H3K36 me2) [%] | % Inhibition of Control Values (JMJD2B (h); 10 μM) | inhibition at 10 µM (JMJD2B (h); 10 μM) [%] | pIC50 (JMJD2B (h); Table 11, inhibition/concentration-response curve, read-out: IC50) | inhibition at 10 µM (hSMYD2) [%] | inhibition at 10 µM (MLL3(h) complex) [%] | inhibition at 10 µM [1] [%] | inhibition at 10 µM [2] [%] | % control response at 10 µM (Chemokine CXCR2 (IL-8RB)) [%] | inhibition at 1 µM (CYP2B6; human liver microsomes) [%] | inhibition at 1 µM (CYP2B6; liver microsomes) [%] | inhibition at 10 µM (CYP2B6; liver microsomes) [%] | pIC50 (hSMYD2; read-out: Reference IC50) | pIC50 (MLL3(h) complex; read-out: Reference IC50)
1 | CC(C)=CCC[C@H](CO)[C@@H]1CC[C@@H](C)c2c1cc(C)c(O)c2O [Compound 1, 7,8,18-trihydroxyserrulat-14-ene] | 58 | significant inhibitory activity | 100 | 5.51 | 35 | 10 | significant inhibitory activity | 65 | 4.92 | 12 | -22 | 5 | 18 | 12 | 13 to 16 | 13 | 55 |  | 
2 | CC(C)=CCC[C@@H]1C(O)Oc2c(C)cc(O)c3c2[C@H]1CC[C@H]3C (stereo partly drawn) [Compound 2, 5,18-epoxyserrulat-14-en-8,18-diol] | 23 |  | 16 |  | 25 | 7 |  | 16 |  | 5 | -21 | -7 | -2 | -7 | 13 to 16 | 15 | 38 |  | 
3 | CC(C)=CCC[C@@H]1COc2c(C)cc(O)c3c2[C@H]1CC[C@H]3C [Compound 3, 5,18-epoxy-8-hydroxyserrulat-14-ene] | 21 |  | 9 |  | 1 | -8 |  | 8 |  | -12 | -33 | 3 | 18 | 1 |  |  |  |  | 
4 | CC(C)=CCC[C@H](C)[C@@H]1CC[C@@H](C)c2c1cc(C)c(O)c2O [Compound 4, 7,8-dihydroxyserrulat-14-ene] |  |  |  |  |  |  |  |  |  |  |  |  |  |  | 13 to 16 | 16 | 49 |  | 
5 | Nc1ncnc2c1ncn2[C@@H]1O[C@H](CSCC[C@H](N)C(=O)O)[C@@H](O)[C@H]1O [SAH] |  |  |  |  |  |  |  |  |  |  |  |  |  |  |  |  |  | 6.80 | 5.05
